Results published in US20100190729A1 (CHUNG-ANG University Industry Academic Cooperation …, priority 2009, published 2010).

Columns and labels:
CD25/CD69 = experiment: T-cell early activation markers, flow cytometry; type: cell-based, mouse; details: 100 μg/ml, splenocytes stimulated by anti-CD3 mAb, 24 hrs
Procedure: FIG. 12 is a flow cytometry result analyzing the changes of CD25/CD69 expression induced by hirsutanonol. Splenocytes were stimulated by anti-CD3 mAb in the presence or absence of hirsutanonol. Each hirsutanonol and CsA was treated at concentrations of 50 and 100 μg/ml, and 50 nM. After incubation for 24 hrs, the percentage of cells expressing CD25 and CD69 were measured using flow cytometry.
CD25 and CD69 expression levels were comparatively measured in the group of basal, CsA and hirsutanonol (50, 100 μg/ml) respectively. CsA was used as a control group due to its strong inhibitory activity on CD25 and CD69 expression. The results were represented in FIG. 12.

IL-4 = IL-4 mRNA expression in anti-CD3 activated splenocytes, RT-PCR; type: cell-based, mouse
Procedure: (§1) FIG. 9 represents RT-PCR results showing an inhibitory effect of hirsutanonol on Th1 and Th2 cytokine expression. Murine splenocytes were cultured on 12 well plate (RT-PCR) at a concentration of 1.5×10^4 cells per well. For T cell activation, CsA (50 nM) and hirsutanonol were added into a well added with anti-CD3 mAb and all of other wells. Cells were incubated for 24 hrs and then […] was carried out. GAPDH was served as an internal control.
(§2) The mRNA expression levels of Th1 cytokines, IL-2 and Th2 cytokines, IL-4, IL-10 and IL-13 were examined. T cells activated by anti-CD3 mAb among spleen lymphocytes were used as a target. The primer sequences used to analyze IL-2, IL-4, IL-10 and IL-13 mRNA are as follows.

Jurkat cells = experiment: Inhibition of cell proliferation, CCK assay (WST-8); type: cell-based, human
Procedure: FIG. 7 is a graph measuring the inhibitory effect of hirsutanonol on cell proliferation. Jurat cells were seeded into a 96 well plate at a concentration of 1×10^4 cells per well, and cultured in 2% FBS DMEM with or without hirsutanonol. Cell numbers were counted in triplicate wells by measuring the absorbance of reduced WST-8 (Dojindo, Japan) at 450 nm.
Hirsutanonol activity to inhibit cell proliferation of Jurkat cells was tested using CCK assay. […] Therefore, about 50 μg/ml of hirsutanonol was used in experiments to assess in vitro activity of hirsutanonol.

[1] = test system: BSA (bovine serum albumin); experiment: BSA degradation test (anti-oxidative activity, Cu2+/H2O2); type: biochemical
Procedure: The hydroxyl radical-mediated oxidation experiments were carried out by metal-catalyzed reactions. BSA (bovine serum albumin) was dissolved in 150 mM phosphate buffer (pH 7.3) to a final concentration of 0.5 mg/ml. […] 50 μg/ml of ascorbic acid was directly dissolved in 1×PBS and served as a control (an anti-oxidant). After incubation in an open tube, the reaction was kept to stand in a 37° C. shaking water bath. Each experimental group was loaded on 10% SDS-PAGE and stained with 0.01% Coomassie blue.
50 μg of BSA (Sigma) was added to 37.5 mM phosphate buffers (pH 7.3) containing 100 μM Cu^2+, 2.5 mM H2O2 and various amounts of hirsutanonol (1, 50, 100/200 μg/ml), and incubated at 37° C. for 2 hrs. Vitamin C (50 μg/ml) was served as a positive control. The reaction mixture was separated on 10% SDS gel and the protein bands were stained with 0.01% Coomassie blue.
Evaluation of anti-oxidative activity was preformed according to a BSA (bovine serum albumin) degradation test. BSA degradation test is a method to verify a capacity of an anti-oxidative compound which protects proteins or enzymes from damage by reactive oxygen species (ROS) using a metal ion-catalyzed reaction. […] The reaction mixture was electrophoresized on 10% SDS-PAGE (SDS-polyacrylamide gel).
To examine anti-oxidative activity of hirsutanonol, the removal of radical produced from H2O2/Cu^2+ was measured.

IL-2 [2] = experiment: IL-2 expression in anti-CD3 activated murine splenocytes, ELISA; type: cell-based, mouse
Procedure: FIG. 8 is the experimental results showing the inhibitory effect of hirsutanonol on IL-2 expression. Murine splenocytes were grown on 96 well plate at a concentration of 1.5×10^4 cells per well. For T cell activation, CsA (50 nM) and hirsutanonol were added into a well added with anti-CD3 mAb and into all of other wells. Cells were incubated for 72 hrs and then ELISA was carried out using the supernatants collected from each well.
IL-2 is a cytokine expressed in Th1 cells and plays a crucial role in the proliferation of T cells. Hirsutanonol was added to splenic T cells which have been primarily cultured from murine splenocytes and pre-activated by anti-CD3 mAb. Inhibitory activity of hirsutanonol on IL-2 expression was measured using ELISA. Cyclosporine A (CsA) with strong inhibitory activity against IL-2 secretion was served as a positive control.

rat mast cell (RBL-2H3) = experiment: β-hexosaminidase assay (mast cell degranulation); type: cell-based
Procedure: FIG. 10 represents experimental results of β-hexosaminidase assay for hirsutanonol. The β-hexosaminidase (beta-hex) assay was performed according to the standard protocol of RBL-2H3 cell line. Suitable supernatant was collected and beta-hex activity was measured by incubating with a beta-hex substrate (p-nitrophenyl N-acetyl-beta-D-glucosaminide; Sigma) colored at 405 nm by cutting.
For testing the degranulation in rat mast cell (RBL-2H3) by hirsutanonol, β-hexosaminidase assay was carried out. β-hexosaminidase assay allows us to measure the activity and degranulation of mast cells.

IL-2 [3] = experiment: IL-2 mRNA expression in anti-CD3 activated splenocytes, RT-PCR; type: cell-based, mouse
Procedure: as §1, §2

IL-13 = IL-13 mRNA expression in anti-CD3 activated splenocytes, RT-PCR; type: cell-based, mouse
Procedure: as §1, §2

IL-10 = IL-10 mRNA expression in anti-CD3 activated splenocytes, RT-PCR; type: cell-based, mouse
Procedure: as §1, §2

[4] = Solubility in water on preparing the stock solution; details: stock solution preparation
From the text: The final concentration of DMSO was adjusted to not more than 0.1% so as to maximally exclude the interference of the solvent. […] The prepared stock solutions were stored and then used after dilution to the suitable concentration.

Structure (SMILES) | inhibitory activity on CD25/CD69 expression compared to basal and CsA (CD25/CD69) | inhibitory activity on IL-4 mRNA expression (IL-4; 50 μg/ml or 100 μg/ml) | inhibitory effect on IL-4 mRNA expression compared to CsA (IL-4; 100 μg/ml, CsA 50 nM) | concentration exhibiting inhibitory effects on cell proliferation (Jurkat cells) | BSA protection effect ([1]; hirsutanonol 100 μg/ml) | activity to protect BSA ([1]; hirsutanonol 1, 50, 100/200 μg/ml, Cu2+ 100 μM, H2O2 2.5 mM) | BSA protection effect compared to Vitamin C ([1]; hirsutanonol, Vitamin C 50 μg/ml positive control) | inhibitory effect on IL-2 expression compared to CsA (IL-2 [2]; 50 μg/ml or 100 μg/ml, CsA 50 nM, 72 hrs) | inhibition effect on IL-2 secretion (IL-2 [2]; 50 μg/ml, without cytotoxicity) | activity level of β-hexosaminidase (rat mast cell (RBL-2H3); 100 μg/ml) | inhibitory capability compared to CsA (rat mast cell (RBL-2H3); β-hexosaminidase) [fold] | inhibitory activity on IL-2 mRNA expression (IL-2 [3]; 50 μg/ml or 100 μg/ml) | inhibitory effect on IL-2 mRNA expression compared to CsA (IL-2 [3]; 100 μg/ml, CsA 50 nM) | inhibitory activity on IL-13 mRNA expression (IL-13; 50 μg/ml or 100 μg/ml) | inhibitory effect on IL-13 mRNA expression compared to CsA (IL-13; 100 μg/ml, CsA 50 nM) | inhibitory activity on IL-10 mRNA expression (IL-10; 50 μg/ml or 100 μg/ml) | inhibitory effect on IL-10 mRNA expression compared to CsA (IL-10; 100 μg/ml, CsA 50 nM) | solubility in water [4]
O=C(CCc1ccc(O)c(O)c1)CC(O)CCc1ccc(O)c(O)c1 (stereo not drawn) [hirsutanonol] | excellent inhibitory activity | significant inhibitory activity | inhibitory effect equal to CsA | over 50 μg/ml | significantly exhibited BSA protection effect | increased in a concentration-dependent manner | lower than that of Vitamin C | much higher than that of CsA | remarkably exhibited | maximally inhibited | 20 | significant inhibitory activity | inhibitory effect equal to CsA | significant inhibitory activity | inhibitory effect equal to CsA | significant inhibitory activity | inhibitory effect equal to CsA | –
O=C(CCc1ccc(O)c(O)c1)C[C@H](CCc1ccc(O)c(O)c1)O[C@@H]1OC[C@@H](O)[C@H](O)[C@H]1O [oregonin] | – | – | – | – | – | – | – | – | – | – | – | – | – | – | – | – | – | feasibly dissolved in water
